The target in experiment [1] is T1, Glutamate receptor ionotropic, AMPA (Rattus norvegicus, UniProt P19490+P19491+P19492+P19493). Description: Inhibition of [3H]AMPA binding to Ionotropic glutamate receptor from rat whole brain.
Experiment [2] is filed under the species Rattus norvegicus. The experiment in a line: The compound was tested for anti-KA-Induced Neurotoxicity in rat primary hippocampal cultures. In kind it is functional. The note with it: Hippocampus.
The target of experiment [3] is Glutamate NMDA receptor. The experiment in a line: The compound was tested for its ability to inhibit [3H]Glu binding to N-methyl-D-aspartate glutamate receptor from rat whole brain.
Experiment [4] has as its target Glutamate NMDA receptor. Description: The compound was tested for its ability to inhibit [3H]Gly binding to N-methyl-D-aspartate glutamate receptor from rat whole brain.
Experiment [5] deals with T1, Glutamate receptor ionotropic, AMPA. The experiment in a line: The compound was tested for its ability to inhibit [3H]AMPA binding to Ionotropic glutamate receptor AMPA from rat whole brain.
Experiment [6] addresses Glutamate NMDA receptor. Description: The compound was tested for its ability to inhibit [3H]Gly binding to N-methyl-D-aspartate glutamate receptor from rat whole brain.
The species entered for experiment [7] is Rattus norvegicus. Description: The compound was tested for anti-KA-Induced Neurotoxicity in rat primary hippocampal cultures. Format: functional. The note with it: Hippocampus.

What is called Ki is the equilibrium dissociation constant of an inhibitor or competing ligand from its target. Low values mean tighter binding, high ones weaker binding. What is called IC50 is the concentration at which inhibition is half-maximal. A high value points to lower potency.

The compound `CCCn1c(=O)c(=O)[nH]c2cc([N+](=O)[O-])c(-n3ccnc3)cc21` showed a Ki in experiment [1] of 130 nM.

`Oc1nc2cc(C(F)(F)F)c(-n3ccnc3)cc2n2ccnc12` displayed a Ki in experiment [1] of 66 nM. This compound yielded a 50% inhibitory concentration (IC50) in the experiment listed under Rattus norvegicus [2] of 320 nM.

`NS(=O)(=O)c1cccc2c1c([N+](=O)[O-])cc1nc(O)c(O)nc12` [NBQX] yielded an IC50 in the experiment filed under Rattus norvegicus [2] of 380 nM.

In experiment [1], `CCC1CN=C2C(=O)Nc3cc([N+](=O)[O-])c(-n4ccnc4)cc3N21` (configuration not stated) registered an inhibitory constant (Ki) of 150 nM.

As for `O=[N+]([O-])c1cc2nc(O)c3nncn3c2cc1-n1ccnc1`, the Ki in experiment [1] amounted to 190 nM.

The compound `Cc1nccn1-c1cc2c(cc1[N+](=O)[O-])nc(O)c1ncc(C)n12` came in with a Ki in experiment [1] above 10000 nM.

For the compound `CCc1nnc2c(O)nc3cc([N+](=O)[O-])c(-n4ccnc4)cc3n12`, the Ki in experiment [1] was 48 nM.

In the case of `Cc1nnc2c(O)nc3cc([N+](=O)[O-])c(-n4ccnc4)cc3n12`, the Ki in experiment [1] worked out at 96 nM.

Consider `CCc1cnc2c(O)nc3cc([N+](=O)[O-])c(-n4ccnc4)cc3n12`, for which, in experiment [1], the inhibition constant (Ki) amounted to 20 nM.

With `O=[N+]([O-])c1cc2nc(O)c3nccn3c2cc1-n1ccnc1`, the figures for the Ki (in experiment [1]; at Glutamate NMDA receptor [3]; at Glutamate NMDA receptor [4]) were 57 nM, above 300000 nM and above 300000 nM, respectively. In addition, the IC50 in the experiment listed under Rattus norvegicus [2] amounted to 300 nM.

As for `Cc1nccn1-c1cc2nc(O)c(O)nc2cc1[N+](=O)[O-]`, the Ki in experiment [1] turned out to be 390 nM.

For the compound `CCCc1nnc2c(O)nc3cc([N+](=O)[O-])c(-n4ccnc4)cc3n12`, the affinity in experiment [5], expressed as Ki, was 99 nM.

In experiment [5], `CCCCc1nnc2c(O)nc3cc([N+](=O)[O-])c(-n4ccnc4)cc3n12` displayed a Ki of 70 nM.

`CCCc1nnc2c(O)nc3cc(-n4ccnc4)c([N+](=O)[O-])cc3n12` registered a Ki in experiment [1] of 6600 nM.

Take `O=c1[nH]c2cc([N+](=O)[O-])c(-n3ccnc3)cc2n(O)c1=O`: the inhibitory constant (Ki) at Glutamate NMDA receptor [6] came to 4200 nM. Moreover, the IC50 in the experiment listed under Rattus norvegicus [7] amounted to 310 nM.

Compound `O=C1Nc2cc(-n3ccnc3)c([N+](=O)[O-])cc2C1=O` gave a Ki in experiment [1] above 100000 nM.

For the compound `O=c1[nH]c2cc(-n3ccnc3)c([N+](=O)[O-])cc2[nH]c1=O` [YM-90K], in the experiment filed under Rattus norvegicus [2], the IC50 stood at 810 nM.

Values taken from ChEMBL document CHEMBL1130419, “8-(1H-imidazol-1-yl)-7-nitro-4(5H)-imidazo[1,2-alpha]quinoxalinone and related compounds: synthesis and structure-activity relationships for the AMPA-type non-NMDA receptor” (J Med Chem, 1997).
